Experimental findings from publication PMC6838323 (2019) are described below.

Common to all, as to assay: fluorescence (Cy3/DABCYL) titration, two-site fit
Holding throughout (conditions): 6 mM Mg2+; 10 mM Tris-HCl pH 7.5, 25 °C; 250 nM aptamer; apparent; ATP up to 6.75 mM

Assay [1] relates to 9_23 (DNA, aptamer) CACCTGGGGGAGTATTGCGGAGGAAGGTTTTTCCCCAGGTG
Assay [2] relates to 9_36 (DNA, aptamer) CACCTGGGGGAGTATTGCGGAGGAAGGTTTTTTTTTTTTTTTTTTCCCCAGGTG
For assay [3], the system named is 6_25 (DNA, aptamer) CACCTGGGGGAGTATTGCGGAGGAAGGTTTTCAGGTG
Assay [4] deals with 7_36 (DNA, aptamer) CACCTGGGGGAGTATTGCGGAGGAAGGTTTTTTTTTTTTTTTTCCAGGTG
The test system of assay [5] is 8_43 (DNA, aptamer) CACCTGGGGGAGTATTGCGGAGGAAGGTTTTTTTTTTTTTTTTTTTTTTTTCCCAGGTG
Assay [6] concerns 8_23 (DNA, aptamer) CACCTGGGGGAGTATTGCGGAGGAAGGTTTTCCCAGGTG
For assay [7], the system named is 6_33 (DNA, aptamer) CACCTGGGGGAGTATTGCGGAGGAAGGTTTTTTTTTTTTCAGGTG
Assay [8] deals with 8_33 (DNA, aptamer) CACCTGGGGGAGTATTGCGGAGGAAGGTTTTTTTTTTTTTTCCCAGGTG
Assay [9] relates to 6_36 (DNA, aptamer) CACCTGGGGGAGTATTGCGGAGGAAGGTTTTTTTTTTTTTTTCAGGTG
Assay [10] relates to 8_36 (DNA, aptamer) CACCTGGGGGAGTATTGCGGAGGAAGGTTTTTTTTTTTTTTTTTCCCAGGTG
The test system of assay [11] is 7_25 (DNA, aptamer) CACCTGGGGGAGTATTGCGGAGGAAGGTTTTTCCAGGTG
For assay [12], the system named is 6_23 (DNA, aptamer) CACCTGGGGGAGTATTGCGGAGGAAGGTTCAGGTG
In assay [13] the test system is 7_43 (DNA, aptamer) CACCTGGGGGAGTATTGCGGAGGAAGGTTTTTTTTTTTTTTTTTTTTTTTCCAGGTG
The subject of assay [14] is 9_25 (DNA, aptamer) CACCTGGGGGAGTATTGCGGAGGAAGGTTTTTTTCCCCAGGTG
Assay [15] has as its system 7_23 (DNA, aptamer) CACCTGGGGGAGTATTGCGGAGGAAGGTTTCCAGGTG
For assay [16], the system named is 8_25 (DNA, aptamer) CACCTGGGGGAGTATTGCGGAGGAAGGTTTTTTCCCAGGTG
In assay [17] the test system is 7_33 (DNA, aptamer) CACCTGGGGGAGTATTGCGGAGGAAGGTTTTTTTTTTTTTCCAGGTG
For assay [18], the system named is 9_33 (DNA, aptamer) CACCTGGGGGAGTATTGCGGAGGAAGGTTTTTTTTTTTTTTTCCCCAGGTG
Assay [19] relates to 9_43 (DNA, aptamer) CACCTGGGGGAGTATTGCGGAGGAAGGTTTTTTTTTTTTTTTTTTTTTTTTTCCCCAGGTG

With `Nc1ncnc2c1ncn2[C@@H]1O[C@H](COP(=O)(O)OP(=O)(O)OP(=O)(O)O)[C@@H](O)[C@H]1O`, the KDeff is on record as 39.0 ± 35.7 mM in assay [1]; 2.72 ± 1.47 mM in assay [2]; 0.0262 ± 0.0095 mM in [3]; 0.0709 ± 0.0018 mM in assay [4]; 0.388 ± 0.124 mM in [5]; 3.58 ± 1.37 mM in assay [6]. Also, the KDeff in assay [7] stood at 0.0182 ± 0.0076 mM; in assay [8], 0.734 ± 0.01 mM; in [9], 0.0107 ± 0.0019 mM; in [10], 0.352 ± 0.043 mM; in assay [11], 0.271 ± 0.038 mM; in [12], 0.0314 ± 0.0111 mM. For the same molecule, the KDeff in assay [13] worked out at 0.0298 ± 0.0031 mM; in assay [14], 12.8 ± 1.7 mM; in [15], 0.382 ± 0.034 mM; in assay [16] it was 2.29 ± 0.05 mM; in assay [17], 0.0985 ± 0.0481 mM; in assay [18], 4.98 ± 0.53 mM. In addition, the KDeff in assay [19] is given as 0.967 ± 0.085 mM.
